Test: excess molar enthalpy (molar enthalpy of mixing); xn = mol fraction of the nth substance listed
Details: Liquid, Flow calorimetry

CC(C)=O [acetone] + O=C=O
excess molar enthalpy [kcal/mol]
Details	313.15 K	323.15 K	333.15 K
9000 kPa, x2 = 0.095	-0.109	–	–
9000 kPa, x2 = 0.102	–	-0.174	-0.18
9000 kPa, x2 = 0.158	–	-0.262	–
9000 kPa, x2 = 0.18	-0.223	–	-0.313
9000 kPa, x2 = 0.246	-0.287	-0.406	-0.424
9000 kPa, x2 = 0.319	–	-0.512	–
9000 kPa, x2 = 0.337	-0.357	–	-0.571
9000 kPa, x2 = 0.424	–	-0.643	-0.702
9000 kPa, x2 = 0.432	-0.446	–	–
9000 kPa, x2 = 0.507	-0.484	-0.749	-0.8
9000 kPa, x2 = 0.586	-0.532	-0.834	–
9000 kPa, x2 = 0.625	–	–	-0.958
9000 kPa, x2 = 0.662	-0.547	–	–
9000 kPa, x2 = 0.699	–	-0.957	-1.02
9000 kPa, x2 = 0.771	-0.565	-0.998	-1.04
9000 kPa, x2 = 0.805	–	-0.998	–
9000 kPa, x2 = 0.807	–	–	-1
9000 kPa, x2 = 0.84	-0.534	-0.968	–
9000 kPa, x2 = 0.9	-0.487	–	–
9000 kPa, x2 = 0.906	–	-0.821	-0.485
9000 kPa, x2 = 0.938	-0.415	-0.624	-0.289
9000 kPa, x2 = 0.969	-0.287	-0.271	–
12000 kPa, x2 = 0.108	-0.0772	-0.0963	–
12000 kPa, x2 = 0.189	-0.137	–	–
12000 kPa, x2 = 0.209	–	-0.182	–
12000 kPa, x2 = 0.258	-0.175	–	–
12000 kPa, x2 = 0.305	–	-0.254	–
12000 kPa, x2 = 0.332	-0.22	–	–
12000 kPa, x2 = 0.351	–	-0.29	–
12000 kPa, x2 = 0.395	-0.251	–	–
12000 kPa, x2 = 0.438	–	-0.352	–
12000 kPa, x2 = 0.464	-0.279	–	–
12000 kPa, x2 = 0.562	-0.307	-0.403	–
12000 kPa, x2 = 0.646	–	-0.423	–
12000 kPa, x2 = 0.675	-0.316	–	–
12000 kPa, x2 = 0.747	–	-0.429	–
12000 kPa, x2 = 0.781	-0.287	–	–
12000 kPa, x2 = 0.801	–	-0.411	–
12000 kPa, x2 = 0.847	-0.245	–	–
12000 kPa, x2 = 0.879	–	-0.332	–
12000 kPa, x2 = 0.911	-0.176	–	–
12000 kPa, x2 = 0.941	–	-0.223	–
12000 kPa, x2 = 0.971	-0.0612	-0.132	–
15000 kPa, x2 = 0.111	-0.0662	-0.0736	-0.0887
15000 kPa, x2 = 0.194	-0.109	-0.127	–
15000 kPa, x2 = 0.215	–	–	-0.162
15000 kPa, x2 = 0.264	-0.148	-0.171	–
15000 kPa, x2 = 0.312	–	–	-0.225
15000 kPa, x2 = 0.34	-0.182	–	–
15000 kPa, x2 = 0.359	–	-0.216	–
15000 kPa, x2 = 0.404	–	–	-0.285
15000 kPa, x2 = 0.456	-0.217	–	–
15000 kPa, x2 = 0.473	–	-0.267	–
15000 kPa, x2 = 0.489	–	–	-0.326
15000 kPa, x2 = 0.53	-0.239	-0.283	–
15000 kPa, x2 = 0.586	-0.244	–	–
15000 kPa, x2 = 0.609	–	-0.297	-0.364
15000 kPa, x2 = 0.647	-0.244	–	–
15000 kPa, x2 = 0.683	–	-0.296	-0.372
15000 kPa, x2 = 0.719	-0.234	–	–
15000 kPa, x2 = 0.753	–	–	-0.36
15000 kPa, x2 = 0.787	-0.212	-0.268	–
15000 kPa, x2 = 0.82	–	–	-0.31
15000 kPa, x2 = 0.852	-0.173	-0.223	–
15000 kPa, x2 = 0.883	–	–	-0.248
15000 kPa, x2 = 0.913	-0.119	-0.156	–
15000 kPa, x2 = 0.915	–	–	-0.202
15000 kPa, x2 = 0.943	-0.087	-0.117	-0.156
15000 kPa, x2 = 0.972	-0.0457	-0.0633	-0.0817
18000 kPa, x2 = 0.114	-0.0631	-0.0648	–
18000 kPa, x2 = 0.198	-0.0997	–	–
18000 kPa, x2 = 0.219	–	-0.124	–
18000 kPa, x2 = 0.269	-0.129	–	–
18000 kPa, x2 = 0.318	–	-0.174	–
18000 kPa, x2 = 0.346	-0.161	–	–
18000 kPa, x2 = 0.41	-0.187	-0.211	–
18000 kPa, x2 = 0.479	-0.202	-0.233	–
18000 kPa, x2 = 0.577	-0.215	-0.248	–
18000 kPa, x2 = 0.652	-0.22	-0.245	–
18000 kPa, x2 = 0.724	-0.205	-0.231	–
18000 kPa, x2 = 0.791	-0.173	-0.205	–
18000 kPa, x2 = 0.855	-0.136	-0.167	–
18000 kPa, x2 = 0.915	-0.0915	-0.108	–
18000 kPa, x2 = 0.944	–	-0.0774	–
18000 kPa, x2 = 0.956	-0.0521	–	–
18000 kPa, x2 = 0.973	–	-0.0445	–

— the NIST ThermoML archive (doi:10.1021/je100220c)
